Assay results taken from patent US8716342B2, “Method for preparing molecular complexes between adapalene and cyclodextrins” (Galderma Research & Development, priority 2009, dated 2014).

Assay: Kinetics of dissolution at 3 g/l and at 25° C. in water (adapalene solubilized, HPLC; pH of the solution at the end)
Format: physicochemical
Experimental: b) Kinetics of Dissolution at 3 g/l and at 25° C.
The chromatographic conditions and the concentrations of the control solutions are the same as those of the assay.
• Stirring: 15-position bench • Thermostated bath: 25° C. +/−2° C. verified on Prolabo PR 531 probe • HPLC Waters 2690-Detector 2487/2996 • Weighing out: Sartorius A200 balance • Dilutions: Eppendorf Research 1000, Eppendorf Research 5000, Gilson M1000 micropipette • Ultrapure water station: ELGA Operating conditions:
A test sample equivalent to 150 mg of Adapalene is introduced into a 100 ml Erlenmeyer flask. 50 ml of water are added. The mixture is stirred magnetically at 400 rpm or position 4 in a waterbath at 25° C. +/−2° C. A 2 ml sample is withdrawn at 15, 30, 60, 120 and 1140 minutes, while stirring magnetically. These withdrawn samples are filtered through 0.45 μm Gelman GHP Acrodisc polypropylene filters. The solution must be clear. The withdrawn samples are diluted by a factor “a” in the mobile phase, making it possible to have an Adapalene peak of surface area included between the surface areas of Control 1 and Control 5.
10 μl of each control solution are injected. A linear regression of the surface areas of the Adapalene peaks relative to the concentrations is performed.
10 μl of the solution to be examined are injected.
The area of the Adapalene peak in each solution to be examined is measured.
The concentration X in μg/ml is deduced therefrom according to the regression line of the controls.
The concentration in μg of Adapalene solubilized per ml is calculated with the formula: [Adapalene] in μg/ml=X×a
The variation in the amount dissolved in μg/ml as a function of time is represented on a graph.
At the end of dissolution, the appearance is immediately noted and the pH of the solution immediately measured.

COc1ccc(-c2ccc3cc(C(=O)O)ccc3c2)cc1C12CC3CC(CC(C3)C1)C2 [Adapalene alone, 6-(3-(1-adamantyl)-4-methoxyphenyl)-2-naphthoic acid]
pH of dissolution, 15 minutes (15 minutes): (5.7)
pH of dissolution, 7 days (7 days): (5.7)
Dissolution, 15 minutes (maturation temperature 85° C., 15 minutes): 0 µg/mL
Dissolution, 7 days (maturation temperature 85° C., 7 days): 0 µg/mL
